Assay results reported in patent US9139532B2, “Pyrazolyl guanidine F1F0-atpase inhibitors and therapeutic uses thereof” (Lycera Corporation, priority 2010, dated 2015).
Read-outs that look alike come from different tables or passages of the source.

How the values were obtained:
Ramos cells = assay: Cytotoxicity in Ramos cells; type: cell-based; conditions: cytotoxicity in Ramos cells, read-out: Ramos Cell EC50
F1F0-ATPase = target: T1, F1F0-ATPase (Bos taurus, UniProt P13621); assay: Inhibition of F1F0-ATPase activity in synthesizing ATP; type: biochemical; conditions: inhibition of ATP synthesis by F1F0-ATPase; read-out: ATP Syn IC50
T1 construct: from tissue

Row | SMILES | EC50 (Ramos cells) | IC50 (F1F0-ATPase) | EC50 (Ramos cells; Homo sapiens)
1 | O=C(/N=C(/Nc1cc(F)cc(Cl)c1)Nc1cc(-c2ccccc2)n[nH]1)c1ccc(F)c(F)c1 [Compound A-436] | > 10 µM | < 10 µM | 
2 | CC(C)(C)N/C(=N/C(=O)c1ccc(Cl)cc1)Nc1cc(C(F)F)[nH]n1 [Compound A-54] |  | < 10 µM | < 10 µM
3 | CC1(CNC(=NC(=O)c2ccc(Cl)cc2)Nc2cc(-c3cc(F)cc(F)c3)n[nH]2)CCCO1 (centres unmarked) [Compound A-212] |  | < 10 µM | < 10 µM
4 | O=C(/N=C(\Nc1cc(C(F)(F)F)n[nH]1)NC1CCC1)c1ccc(Cl)c(F)c1 [Compound A-114] |  | < 10 µM | < 10 µM
5 | CC(N/C(=N/C(=O)c1ccc(F)cc1)Nc1cc(-c2ccc(F)cc2)n[nH]1)C1CCCO1 (centres unmarked) [Compound A-207] | > 10 µM | > 10 µM | 
6 | CC(C)CN/C(=N/C(=O)c1ccc(Cl)c(F)c1)Nc1cc(-c2ccc(F)cc2)n[nH]1 [Compound A-220] | < 10 µM | < 10 µM | 
7 | COC[C@H](C)N/C(=N/C(=O)c1ccc(F)cc1)Nc1cc(-c2ccc(C)c(F)c2)n[nH]1 [Compound A-205] |  | < 10 µM | < 10 µM
8 | COc1cccc(CN/C(=N/C(=O)c2ccc(F)c(C)c2)Nc2cc(-c3ccc(F)cc3)n[nH]2)c1 [Compound A-392] | < 10 µM | < 10 µM | 
9 | O=C(/N=C(/NCC1CCCO1)Nc1cc(C(F)(F)F)[nH]n1)c1ccc(F)cc1 (centres unmarked) [Compound A-413] | > 10 µM | < 10 µM | 
10 | CC(C)(C)CN/C(=N/C(=O)c1ccc(C(F)(F)F)cc1)Nc1cc(C(F)F)[nH]n1 [Compound A-68] |  | < 10 µM | < 10 µM
11 | CC(N/C(=N/C(=O)c1ccc(F)c(F)c1)Nc1cc(C(F)(F)F)[nH]n1)c1ccc(Cl)cc1 (centres unmarked) [Compound A-29] |  | < 10 µM | < 10 µM
12 | O=C(/N=c1\[nH]c2cc(C(F)(F)F)nn2c(=O)n1Cc1ccc(F)cc1Cl)c1ccc(F)c(F)c1 [Compound A-567, (E)-N-(3-(2-chloro-4-fluorobenzyl)-4-oxo-7-(trifluoromethyl)-3,4-dihydropyrazolo[1,5-a][1,3,5]triazin-2(1H)-ylidene)-3,4-difluorobenzamide] |  | < 10 µM | < 10 µM
13 | O=C(N=C(Nc1cc(-c2cc(F)cc(F)c2)n[nH]1)NC1CCCC1)c1ccc(F)c(F)c1 [Compound A-365] |  | < 10 µM | < 10 µM
14 | CC(C)(C)NC(=NC(=O)c1ccc(Cl)cc1)Nc1cc(-c2cc(F)cc(F)c2)n[nH]1 [Compound A-232] |  | < 10 µM | < 10 µM
15 | O=C(/N=C(\Nc1cc(-c2ccc(Cl)cc2)n[nH]1)NC1CCCC1)c1cccc(F)c1 [Compound A-385] | < 10 µM | < 10 µM | 
16 | O=C(/N=C(/NCc1ccc(Cl)c(F)c1)Nc1cc(C(F)(F)F)[nH]n1)c1ccc(C(F)(F)F)cc1 [Compound A-20] |  | < 10 µM | < 10 µM
17 | CC(C)(C)CN/C(=N/C(=O)c1cccc(C#N)c1)Nc1cc(-c2ccc(F)cc2)[nH]n1 [Compound A-517] | < 10 µM | < 10 µM | 
18 | O=C(N=C(Nc1cc(-c2cc(F)cc(F)c2)n[nH]1)Nc1ccc(F)cc1Cl)c1ccc(C(F)(F)F)cc1 [Compound A-294] |  | < 10 µM | > 10 µM
19 | CCOCCCNC(=NC(=O)c1ccc(Cl)cc1)Nc1cc(-c2ccc(F)cc2)n[nH]1 [Compound A-278] |  | < 10 µM | > 10 µM
20 | Cc1ccc(-c2cc(N/C(=N\C(=O)c3ccc(F)c(F)c3)Nc3ccc(F)cc3Cl)[nH]n2)cc1F [Compound A-318] | < 10 µM | > 10 µM | 
21 | O=C(/N=C(\Nc1cc(-c2ccc(F)cc2)n[nH]1)NC1CCC(F)(F)CC1)c1ccc(F)cc1 [Compound A-501] | < 10 µM | < 10 µM | 
22 | O=C(/N=C(/Nc1cc(F)cc(Cl)c1)Nc1cc(-c2cccs2)[nH]n1)c1ccc(Cl)c(F)c1 [Compound A-144] | < 10 µM | < 10 µM | 

Row | SMILES | EC50 (Ramos cells) | IC50 (F1F0-ATPase) | EC50 (Ramos cells; Homo sapiens)
23 | COc1ccc(C(=O)/N=C(/NCC(C)C)Nc2cc(-c3ccc(F)cc3)n[nH]2)c(F)c1 [Compound A-372] | > 10 µM | < 10 µM | 
24 | COCC(C)N/C(=N/C(=O)c1ccc(Cl)cc1)Nc1cc(C(F)(F)F)n[nH]1 (centres unmarked) [Compound A-111] |  | < 10 µM | < 10 µM
25 | CC(C)(C)CN/C(=N/C(=O)c1ccc(Cl)cc1)Nc1cc(C(F)F)[nH]n1 [Compound A-69] |  | < 10 µM | < 10 µM
26 | O=C(N=C(Nc1cc(-c2ccc(Cl)cc2)n[nH]1)NC1CCCC1)c1ccc(Cl)c(F)c1 [Compound A-382] |  | < 10 µM | < 10 µM
27 | O=C(/N=C(/NCc1cccc(C(F)(F)F)c1)Nc1cc(C(F)(F)F)n[nH]1)c1ccc(Cl)cc1 [Compound A-10] |  | < 10 µM | < 10 µM
28 | O=C(N=C(Nc1cc(F)cc(Cl)c1)Nc1cc(-c2cccc(Cl)c2)[nH]n1)c1ccc(Cl)c(F)c1 [Compound A-475] |  | < 10 µM | > 10 µM
29 | COC[C@H](C)N/C(=N/C(=O)c1ccc(F)cc1F)Nc1cc(-c2ccc(F)cc2)n[nH]1 [Compound A-488] | < 10 µM | < 10 µM | 
30 | CC(C)OCCCNC(=NC(=O)c1ccc(F)c(F)c1)Nc1cc(-c2cc(F)cc(Cl)c2)n[nH]1 [Compound A-283] |  | < 10 µM | < 10 µM
31 | CC(C)CN/C(=N/C(=O)c1ccc(Cl)c(F)c1)Nc1cc(-c2cc(F)cc(F)c2)n[nH]1 [Compound A-352] | < 10 µM | < 10 µM | 
32 | O=C(/N=C(/NCC1CCOC1)Nc1cc(C(F)(F)F)[nH]n1)c1ccc(F)cc1 (centres unmarked) [Compound A-406] | > 10 µM | < 10 µM | 
33 | N#Cc1cccc(C(=O)/N=C(\Nc2cc(-c3ccc(F)cc3)[nH]n2)N[C@@H]2CCOC2)c1 [Compound A-510] | < 10 µM | < 10 µM | 
34 | CC(C)(C)N/C(=N/C(=O)c1cccc(C#N)c1)Nc1cc(-c2ccc(Cl)cc2)n[nH]1 [Compound A-308] | < 10 µM | < 10 µM | 
35 | CC(N/C(=N/C(=O)c1ccc(Cl)cc1)Nc1cc(C(F)(F)F)[nH]n1)c1ccccc1Cl (centres unmarked) [Compound A-34] |  | < 10 µM | < 10 µM
36 | O=C(N=C(NCC1CCO1)Nc1cc(-c2ccc(F)cc2)n[nH]1)c1ccc(Cl)c(F)c1 (centres unmarked) [Compound A-215] |  | > 10 µM | > 10 µM
37 | CC(C)(C)c1n[nH]c(N/C(=N\C(=O)c2ccc(C(F)(F)F)cc2)Nc2ccc(F)cc2Cl)c1F [Compound A-336] | < 10 µM | < 10 µM | 
38 | CC(C)OCCCNC(=NC(=O)c1ccc(Cl)c(F)c1)Nc1cc(-c2cc(F)cc(F)c2)n[nH]1 [Compound A-344] |  | < 10 µM | < 10 µM
39 | CC(C)(C)N/C(=N/C(=O)c1ccc(Cl)cc1)Nc1cc(-c2ccc(F)cc2)n[nH]1 [Compound A-453] | < 10 µM | < 10 µM | 
40 | CC(C)(C)N/C(=N/C(=O)c1cccc(F)c1)Nc1cc(-c2cccc(Cl)c2)n[nH]1 [Compound A-438] | < 10 µM | < 10 µM | 
41 | CC(C)N/C(=N/C(=O)c1ccc(Cl)cc1)Nc1cc(C(F)F)[nH]n1 [Compound A-55] |  | < 10 µM | > 10 µM
42 | COc1ccc(C(=O)/N=C(/NCC(C)(C)C)Nc2cc(-c3ccc(F)cc3)[nH]n2)cc1 [Compound A-515] | < 10 µM | < 10 µM | 
43 | O=C(/N=C(/Nc1cc(C(F)(F)F)n[nH]1)NC1CCCC1)c1ccc(Cl)c(F)c1 [Compound A-115] |  | < 10 µM | < 10 µM
